pIC50: −log10 of the molar value.
What was measured:
Assay type in all cases: cell-based
[1] = system: Huh 7 (hepatocellular carcinoma); assay: Growth inhibition, methylene blue dye assay, Huh 7; conditions: Homo sapiens, Huh 7, 72 h
Method: (§1) Compound 1 was evaluated against 21 human tumor cell lines derived from nine cancer cell types: nasopharyngeal carcinoma (HONE-1, CPT 30, and HONE-cis6), cervical carcinoma (KB, KB-CPT100, KB7D, KB-1036, KB-S15, and KB-vin10), gastric carcinoma (TSGH), breast carcinoma (MCF-7), colorectal carcinoma (HT29), non-small cell lung carcinoma (H460), lymphoma (BJAB and H9), leukemia (CEM and HL 60), and hepatocellular carcinoma (Hep 3B, Hep G2, Huh 7, and Hcc36). […] Compound 140 was tested against the following 15 cell lines: HONE-1, CPT 30, and HONE-cis6, KB, KB-CPT100, KB7D, KB-1036, KB-S 15, and KB-vin10, TSGH, MCF-7, H460, BJAB, H9, and Hep G2. Compound 32 was tested against the following 8 cell lines: HONE-1, KB, TSGH, MCF-7, H460, BJAB, H9, and Hep G2.
(§2) Cells in logarithmic growth phase were cultured at a density of 5000 cells/ml/well in a 24-well plate. Drug-resistant cells were cultured in a medium free of test compounds for 3 days before use. The cells were exposed to various concentrations of a test compound for 72 h. The methylene blue dye assay was used to evaluate the effect of the test compound on cell growth, as has been described in Finlay et al., Anal. Biochem. 1984, 139, 272-277. The IC50 value resulting from 50% inhibition of cell growth was calculated graphically as a comparison with control growth.

[2] = system: HL 60 (leukemia); assay: Growth inhibition, methylene blue dye assay, HL60; conditions: Homo sapiens, HL60, 72 h
Method: as §1, §2

[3] = system: KB-1036 (cervical carcinoma); assay: Growth inhibition, methylene blue dye assay, KB-1036; conditions: Homo sapiens; KB-1036, D-501036 driven selection, 72 h
Method: as §1, §2

[4] = system: HONE-cis6 (nasopharyngeal carcinoma); assay: Growth inhibition, methylene blue dye assay, HONE-cis6; conditions: Homo sapiens; HONE-cis6, drug-resistant, cisplatin-driven selection, 72 h
Method: as §1, §2

[5] = system: KB-CPT100 (cervical carcinoma); assay: Growth inhibition, methylene blue dye assay, KB-CPT100; conditions: Homo sapiens, KBCPT100; KB-CPT100, drug-resistant, camptothecin-driven selection, 72 h
Method: as §1, §2

[6] = system: BJAB (lymphoma); assay: Growth inhibition, methylene blue dye assay, BJAB; conditions: Homo sapiens, 72 h
Method: as §1, §2

[7] = system: KB7D (cervical carcinoma); assay: Growth inhibition, methylene blue dye assay, KB7D; conditions: Homo sapiens, VP-16-driven selection, 72 h
Method: as §1, §2

[8] = system: KB-S15 (cervical carcinoma); assay: Growth inhibition, methylene blue dye assay, KB-S15; conditions: Homo sapiens; KB-S15, drug-resistant, paclitaxel-driven selection, 72 h
Method: as §1, §2

[9] = system: HONE-1 (nasopharyngeal carcinoma); assay: Growth inhibition, methylene blue dye assay, HONE-1; conditions: Homo sapiens, HONE1, 72 h
Method: as §1, §2

[10] = system: Hep G2 (hepatocellular carcinoma); assay: Growth inhibition, methylene blue dye assay, Hep G2; conditions: Homo sapiens, HepG2, Hep G2, 72 h
Method: as §1, §2

[11] = system: MCF-7 (breast carcinoma); assay: Growth inhibition, methylene blue dye assay, MCF7; conditions: Homo sapiens, MCF7, 72 h
Method: as §1, §2

[12] = system: Hcc36 (hepatocellular carcinoma); assay: Growth inhibition, methylene blue dye assay, Hcc36; conditions: Homo sapiens, Hcc36, 72 h
Method: as §1, §2

[13] = system: H460 (non-small cell lung carcinoma); assay: Growth inhibition, methylene blue dye assay, H460; conditions: Homo sapiens, NCI-H460, H460, 72 h
Method: as §1, §2

[14] = system: KB-vin10 (cervical carcinoma); assay: Growth inhibition, methylene blue dye assay, KB-vin10; conditions: Homo sapiens; KB-vin10, vincristine-driven selection, 72 h
Method: as §1, §2

[15] = system: HT29 (colorectal carcinoma); assay: Growth inhibition, methylene blue dye assay, HT29; conditions: Homo sapiens, HT-29, HT29, 72 h
Method: as §1, §2

[16] = system: KB (cervical carcinoma); assay: Growth inhibition, methylene blue dye assay, KB; conditions: Homo sapiens, 72 h
Method: as §1, §2

[17] = system: human tumor cell lines; assay: Growth inhibition, methylene blue dye assay, panel of tumor cell lines; conditions: most of the tested cell lines, 72 h
Method: as §1, §2

[18] = system: H9 (lymphoma); assay: Growth inhibition, methylene blue dye assay, H9; conditions: Homo sapiens, H9, 72 h
Method: as §1, §2

[19] = system: Hep 3B (hepatocellular carcinoma); assay: Growth inhibition, methylene blue dye assay, Hep 3B; conditions: Homo sapiens, Hep3B, 72 h
Method: as §1, §2

[20] = system: CEM (leukemia); assay: Growth inhibition, methylene blue dye assay, CEM; conditions: Homo sapiens, 72 h
Method: as §1, §2

[21] = system: CPT30 (nasopharyngeal carcinoma); assay: Growth inhibition, methylene blue dye assay, CPT30; conditions: Homo sapiens; CPT30, drug-resistant, camptothecin-driven selection, 72 h
Method: as §1, §2

[22] = system: TSGH (gastric carcinoma); assay: Growth inhibition, methylene blue dye assay, TSGH; conditions: Homo sapiens, 72 h
Method: as §1, §2

[23] = system: Human cervical carcinoma KB cells; assay: Growth inhibition assay, KB cells (MTS); conditions: 72 h, read-out: IC50 (concentration causing 50% cell growth inhibition)
Method: Anticancer activities of the compounds of this invention were evaluated using a growth inhibition assay described in Kuo et al., Cancer Res. 2004, 64(13), 4621-4628.
Human cervical carcinoma KB cells were maintained in plastic dishes in DMEM medium supplemented with 10% fetal bovine serum. For in vitro treatment, tumor cells were seeded in […] of culture medium/well in 96-well plates to a final cell density of 6×10^3 cell/mL and incubated in a CO2 incubator at 37° C. for 24 h. The cells were treated with at least five different concentrations of a test compound, and incubated in a CO2 incubator at 37° C. for 72 h. The number of viable cells was estimated using MTS assay and absorbance was measured at 490 nm. For each test compound, dose-response curves were measured with at least five different drug concentrations, and the concentration causing 50% cell growth inhibition (IC50) compared with the control was calculated.

SMILES: Cc1cc(=O)oc2c1ccc1oc(C(=O)c3ccccc3)c(-c3ccccc3)c12 [Compound 1, 8-benzoyl-4-methyl-9-phenyl-furo[2,3-h]chromen-2-one]
- pIC50 [1]: 4.57
- pIC50 [2]: 6.00
- pIC50 [3]: 8.40
- pIC50 [4]: 8.35
- pIC50 [5]: 8.20
- pIC50 [6]: 6.96
- pIC50 [7]: 9.10
- pIC50 [8]: 9.30
- pIC50 [9]: 8.70
- pIC50 [10]: 5.46
- pIC50 [11]: 8.40
- pIC50 [12]: 4.97
- pIC50 [13]: 9.30
- pIC50 [14]: 8.60
- pIC50 [15]: 8.15
- pIC50 [16]: 8.74 to 8.89
- pIC50 [17]: > 8.00
- pIC50 [18]: 8.46
- pIC50 [19]: 4.46
- pIC50 [20]: 6.00
- pIC50 [21]: 8.07
- pIC50 [22]: 7.77

SMILES: COc1ccc(C(=O)c2oc3ccc4c(C)cc(=O)oc4c3c2-c2ccccc2)cc1 [Compound 32]
- pIC50 [6]: 7.35
- pIC50 [9]: 7.26
- pIC50 [10]: 5.26
- pIC50 [11]: 6.82
- pIC50 [13]: 7.40
- pIC50 [16]: 7.39
- pIC50 [17]: > 6.82
- pIC50 [18]: 6.91
- pIC50 [22]: 6.82

SMILES: Cc1cc(=O)oc2c1ccc1oc(C(=O)c3ccccc3)c(-c3ccc(Br)cc3)c12 [Compound 140]
- pIC50 [3]: 7.89
- pIC50 [4]: 8.00
- pIC50 [5]: 8.05
- pIC50 [6]: 7.22
- pIC50 [7]: 8.10
- pIC50 [8]: 8.00
- pIC50 [9]: 8.52
- pIC50 [10]: 5.59
- pIC50 [11]: 7.89
- pIC50 [13]: 8.52
- pIC50 [14]: 8.00
- pIC50 [16]: 8.11
- pIC50 [17]: > 8.00
- pIC50 [18]: 7.70
- pIC50 [21]: 7.98
- pIC50 [22]: 7.39

SMILES: Cc1cc(=O)oc2c1ccc1oc(C(=O)c3cccc(Cl)c3)c(-c3ccc(Br)cc3)c12 [Compound 217]
- pIC50 [23]: 6.00 to 7.00

SMILES: COc1ccccc1C(=O)c1oc2ccc3c(C)cc(=O)oc3c2c1-c1ccc(Br)cc1 [Compound 219]
- pIC50 [23]: 6.00 to 7.00

SMILES: Cc1cc(=O)oc2c1ccc1oc(C(=O)c3ccc4ccccc4c3)c(-c3ccc(F)cc3)c12 [Compound 220]
- pIC50 [23]: 6.00 to 7.00

SMILES: Cc1cc(=O)oc2c1ccc1oc(C(=O)c3cc(F)ccc3F)c(-c3ccc(F)cc3)c12 [Compound 221]
- pIC50 [23]: 6.00 to 7.00

SMILES: COc1ccc(C(=O)c2oc3ccc4c(C)cc(=O)oc4c3c2-c2ccc(Cl)cc2)cc1 [Compound 223]
- pIC50 [23]: 5.00 to 6.00

SMILES: Cc1cc(=O)oc2c1ccc1oc(C(=O)c3ccccc3)c(-c3ccc(Cl)c(Cl)c3)c12 [Compound 224]
- pIC50 [23]: 6.00 to 7.00

SMILES: Cc1cc(=O)oc2c1ccc1oc(C(O)c3ccccc3)cc12 (centres unmarked) [Compound 226]
- pIC50 [23]: 6.00 to 7.00

SMILES: CCCCCCCCCCOc1cccc(C(=O)c2oc3ccc4c(C)cc(=O)oc4c3c2-c2ccccc2)c1 [Compound 244]
- pIC50 [23]: 6.00 to 7.00

SMILES: COc1ccc(-c2c(C(=O)c3ccccc3)oc3ccc4c(C)cc(=O)oc4c23)cc1 [Compound 248]
- pIC50 [23]: 6.00 to 7.00

SMILES: CCN(CCO)CCCOc1cccc(C(=O)c2oc3ccc4c(C)cc(=O)oc4c3c2-c2ccccc2)c1 [Compound 251]
- pIC50 [23]: 6.00 to 7.00

SMILES: CCCOc1cccc(C(=O)c2oc3ccc4c(C)cc(=O)oc4c3c2-c2ccc(Br)cc2)c1 [Compound 253]
- pIC50 [23]: 6.00 to 7.00

SMILES: Cc1cc(=O)oc2c1ccc1oc(C(=O)c3cccs3)c(-c3ccc(Br)cc3)c12 [Compound 254]
- pIC50 [23]: 6.00 to 7.00

SMILES: Cc1cc(=O)oc2c1ccc1oc(C(=O)c3ccc(N(C)C)cc3)c(-c3ccccc3)c12 [Compound 264]
- pIC50 [23]: 6.00 to 7.00

SMILES: Cc1cc(=O)oc2c1ccc1oc(C(=O)c3ccc(OCCN4CCOCC4)cc3)c(-c3ccccc3)c12 [Compound 265]
- pIC50 [23]: 5.00 to 6.00

SMILES: Cc1cc(=O)oc2c1ccc1oc(C(=O)c3ccc(OCCN(C)C)cc3)c(-c3ccccc3)c12 [Compound 266]
- pIC50 [23]: 5.00 to 6.00

From patent publication US8058427B2, “Coumarin compounds and their use for treating cancer” (National Health Research Institutes, priority 2008, dated 2011)
